Results as given in patent US11981919B2, “Methods for forming three-dimensional human retinal tissue in vitro” (THE JOHNS HOPKINS UNIVERSITY, priority 2014, dated 2024).

How the values were obtained:
[1] = tested on: CB-iPSC6.2-derived retinal cups (RCs); experiment: Retinoic acid treatment of hiPSC-derived retinal cups, rod-opsin expression by immunohistochemistry; type: cell-based, human; details: for rod-opsin expression (qualitative, microscopic observation): 3 independent experiments
Protocol: (§1) To promote photoreceptor maturation, suspension cultures of RCs were supplemented daily with 1 μM all-trans retinoic acid (RA; Sigma) at various time windows: W7-W17; W7-W14 or W10-W14; subsequently, RA concentration was decreased to 0.5 μM.
(§2) RCs were fixed in 4% PFA for 30 min. […] DAPI was used for nuclear counterstaining (Molecular Probes).

[2] = tested on: KA.1- and IMR90-4-derived RCs; experiment: as above; type: cell-based, human; details: RA treatment in W10-W14
Protocol: as §1, §2

CC1=C(/C=C/C(C)=C/C=C/C(C)=C/C(=O)O)C(C)(C)CCC1 [retinoic acid, all-trans retinoic acid]
rod-opsin expression (qualitative, microscopic observation) ([1]; 1 μM RA during W10-W14, W17 and W21): dispersed cells with strong rod-opsin expression in their cell bodies already at W17 | rod-opsin expression (qualitative, microscopic observation) ([1]; 1 μM RA in W7-W14): low levels of rod-opsin expression in the distal part of photoreceptor cells | retinal cups showing dispersed cells with higher rod-opsin expression, also in cell bodies ([1]; 1 μM retinoic acid W10-W14, evaluated at W17, n=8): ~50% | retinal cups showing a significant increase in the number of photoreceptors expressing rod opsin ([1]; 1 μM retinoic acid W10-W14, evaluated by W21, n=20): 90% | rod-opsin expression (qualitative, microscopic observation) [2]: induction of rod-opsin expression was also observed, although at a later time and less efficiently than in CB-iPSC6.2-derived RCs
